Reference: US20230248025A1 (priority 2020, published 2023)
“And” between values parts separate entries of the source, which are not always exact repeats. Equal entries are not always repeated.

Experiments:
total flora = assay: Total plate count in cooked emulsified sausage during storage; format: cell-based
Listeria monocytogenes [1] = assay: Challenge test Listeria in fresh ground sausage; format: cell-based
lactic flora = assay: Lactic flora in cooked emulsified sausage during storage; format: cell-based
[2] = pH of emulsified cooked sausage modalities before and after cooking; format: physicochemical
toxins of C. botulinum = system: toxins of C. botulinum; design: species or system Clostridium botulinum; conditions: in vivo
[3] = Color and stability study in emulsified cooked sausage (visual, L*a*b*, hue angle, delta a*, delta E); format: physicochemical
[4] = system: Clostridium botulinum (group II type B); format: cell-based
Listeria monocytogenes [5] = conditions: emulsified sausage; 4° C. then 8° C.
lactic acid bacteria = assay: Endogenous lactic acid bacteria in cooked emulsified sausage model; format: cell-based
[6] = cooked emulsified sausage, d0 to d21
[7] = emulsified sausage, modalities 3-6 also contain 3000 ppm Natstabil M2 blend1

lactate
total flora growth (total flora): normal growth
Δ log cfu/g versus untreated control (Listeria monocytogenes [1]; d8): −0.9 log cfu/g
lactic flora growth (lactic flora): normal growth

O=NO [Nitrite]
pH after cooking d0 [2]: 6.48
pH before cooking [2]: 6.31
pH d7 [2]: 6.43
pH d14 [2]: 6.47
pH d21 [2]: 6.47
Detection of toxins of C. botulinum, positive samples of 5, Day 21 (toxins of C. botulinum): 0/5
Detection of toxins of C. botulinum, positive samples of 5, Day 40 (toxins of C. botulinum): 0/5
production of C. botulinum toxin (toxins of C. botulinum): inhibit the production of toxin
total flora growth (total flora): normal growth
sausage color after 21 days of storage (visual) ([3]; 10 days at 4° C. and 11 days at 8° C.): slightly degraded (pale orange shade)
a* value over time [3, 6]: a* values more important than control, stable over time
b* value over time [3, 6]: slight increase of b* value at d21
meat color before cooking (visual) [3, 7]: grey
sausage color after cooking (visual) [3, 7]: light pink
C. botulinum (spores + vegetative cells) D0 before cooking [4]: 250 CFU/g and 450 CFU/g and 400 CFU/g
C. botulinum (spores + vegetative cells) Day 30 [4]: <5 CFU/g and 5 CFU/g
C. botulinum (spores + vegetative cells) Day 40 [4]: 5 CFU/g and <5 CFU/g
C. botulinum (spores only) D0 after cooking [4]: <5 CFU/g and 5 CFU/g
C. botulinum (spores only) Day 21 [4]: <5 CFU/g
C. botulinum (spores only) Day 30 [4]: <5 CFU/g
C. botulinum (spores only) Day 40 [4]: <5 CFU/g
Δ log cfu/g versus untreated control (Listeria monocytogenes [1]; d4): < −0.5 log cfu/g
Δ log cfu/g versus untreated control (Listeria monocytogenes [1]; d8): < −0.5 log cfu/g
Listeria growth during shelf-life (Listeria monocytogenes [5]): cannot limit the growth
Lactic acid bacteria Day 40 (lactic acid bacteria; 14 days at 4° C., 2 h at 20° C. and 26 days at 8° C.): <5 CFU/g
Lactic acid bacteria D0 after cooking (lactic acid bacteria; inoculated sausage model): <5 CFU/g
lactic flora growth (lactic flora): normal growth
